# Experimental data: the supplement of paper PMC6723410
# Tested on: GUMC-403
# Experiment: viability at highest tested concentration (max response) relative to DMSO (% of DMSO control); higher = less cytotoxic
# Conditions: library / dose series: MIPE library, 11-point 1:3 dilution; top concentration 23 µM; 48 h
# Method in brief: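 Patient-derived GUMC-403 papilloma cells grown by conditional reprogramming were plated at 700/well in 5 μL F + Y medium in 1536-well plates and incubated overnight at 37 °C. They then received 23 nL of MIPE 4.0 compounds by pin tool (11-point 1:3 series) for 48 h. CellTiter-Glo luminescence was read on a ViewLux and normalised with DMSO wells as 100% and empty wells as 0%. The value is viability at the highest tested concentration relative to DMSO control.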
row,Structure (SMILES),viability
1,CC(C)Cc1ccc(C(C)C(=O)O)cc1 (centres undefined),103

# Same assay, conditions: library / dose series: MIPE library, 11-point 1:3 dilution; top concentration 46.1 µM; 48 h
row,Structure (SMILES),viability
1,C[C@]12CC[C@@H]3c4ccc(O)cc4CC[C@H]3[C@@H]1C[C@@H](O)[C@@H]2O,87
2,CN1\C(=C(\O)C2=C(C=CC=C2)[S+]1([O-])=O)C(=O)NC3=CC=CC=N3,99
3,COc1ccc(C2(C#N)CCC(C(=O)O)CC2)cc1OC1CCCC1 (centres undefined),123
4,C=CC[N+]1([C@H]2C[C@H]3[C@@H]4CC[C@H]5C[C@H](O)[C@@H](N6CCOCC6)C[C@]5(C)[C@H]4CC[C@]3(C)[C@H]2OC(C)=O)CCCC1,108
5,Cc1nc(-c2ccc(-c3ccc(C(=O)N4CCc5cc6c(cc54)C4(CCN(C)CC4)CO6)cc3)c(C)c2)no1,124
6,COc1cc(C(C)C)c(Oc2cnc(NC(CO)CO)nc2N)cc1I,115
7,C[C@H]1[C@H](NC(=O)/C(=N/OC(C)(C)C(=O)O)c2csc(N)n2)C(=O)N1[S+](=O)([O-])O,114
8,CC1(C)SCCN([S+](=O)([O-])c2ccc(OCC#CCO)cc2)[C@H]1C(=O)NO,103
9,CCc1nc(N)nc(N)c1-c1ccc(Cl)cc1,97.1
10,Fc1ccc(CNc2ncnc3ccc(F)cc23)cc1,80.4
11,CCn1c(-c2nonc2N)nc2cnc(Oc3cccc(NC(=O)c4ccc(OCCN5CCOCC5)cc4)c3)cc21,65.4
12,CN(C)C(=O)[C@H](O)[C@H](Cc1ccccc1)NC(=O)c1cc2cc(Cl)ccc2[nH]1,114
13,Cc1ccc(O)c(C(CCN(C(C)C)C(C)C)c2ccccc2)c1.Cl (centres undefined),125
14,CC(C)(C)OC(=O)N[C@H]1CCCCC/C=C\[C@@H]2C[C@@]2(C(=O)N[S+](=O)([O-])C2CC2)NC(=O)[C@@H]2C[C@@H](OC(=O)N3Cc4cccc(F)c4C3)CN2C1=O,138
15,Cc1[nH]c(/C=C2\C(=O)Nc3ccc([S+](=O)([O-])Cc4c(Cl)cccc4Cl)cc32)c(C)c1C(=O)N1CCC[C@@H]1CN1CCCC1,113
16,CCN(CC)CC#CCOC(=O)C(O)(c1ccccc1)C1CCCCC1 (centres undefined),127
17,C[N+](C)([O-])CCNc1ccc(NCC[N+](C)(C)[O-])c2c1C(=O)c1c(O)ccc(O)c1C2=O,104
18,C[C@@H]1CC[C@H]2[C@@H](C)C(=O)O[C@@H]3O[C@@]4(C)CC[C@@H]1[C@]32OO4,109
19,CN1C[C@H]2c3ccccc3Oc3ccc(Cl)cc3[C@@H]2C1,91.4
20,CN1C(=O)C(=C\C2=C1N=C(NC3=CC=CC(=C3)C(O)=O)N=C2)/C4=C(Cl)C=CC=C4Cl,148
21,CO[C@H]1C[C@@H]2CC[C@@H](C)[C@@](O)(O2)C(=O)C(=O)N2CCCC[C@H]2C(=O)O[C@H]([C@@H](C)C[C@@H]2CC[C@@H](O)[C@H](OC)C2)CC(=O)[C@H](C)/C=C(\C)[C@@H](O)[C@@H](OC)C(=O)[C@H](C)C[C@H](C)/C=C/C=C/C=C/1C,106

row,Structure (SMILES),viability
1,O=[S+]([O-])(CC1CS1)c1ccc(Oc2ccccc2)cc1 (centres undefined),122
2,CC(N)C12CC3CC(CC(C3)C1)C2 (centres undefined),104
3,COc1ccc(CCC(=O)Nc2nc3ccc(Cl)cc3s2)cc1OC,47.9
4,Nc1ccc([S+](=O)([O-])Nc2ccccn2)cc1,115
5,COc1cc2c(N3CCN(C(=O)Nc4ccc(OC(C)C)cc4)CC3)ncnc2cc1OCCCN1CCCCC1,109
6,OC1=CC2=C(C(=C1)O)C(=O)\C(=C(/O2)C3=CC(=C(O)C=C3)O)O,147
7,OC(Cn1cncn1)(Cn1cncn1)c1ccc(F)cc1F,130
8,O=C(C[C@@H]1C/C=C\CCC(=O)O[C@H](c2ccccc2)CNC1=O)NCc1ccc(Cl)cc1,97.5
9,Cn1cnc2c(F)c(Nc3ccc(Br)cc3Cl)c(C(=O)NOCCO)cc21,73.7
10,CCOC(=O)C(C#N)C\1C2=CC(=CC=C2O\C(=C1C(=O)OCC)N)Br (centres undefined),120
11,COc1cc2ncnc(-n3nc(-c4ccccn4)nc3N)c2cc1OC,124
12,Fc1ccc([C@@H]2CCNC[C@H]2COc2ccc3c(c2)OCO3)cc1,97.2
13,OC[C@H]1O[C@H]([C@@H](F)[C@@H]1O)N2\C=C/C(=O)NC2=O,116
14,COc1cccc(N(C)C(=S)Oc2ccc3c(c2)CCCC3)n1,126
15,COC(=O)\C1=C\CCN(C)C1,111
16,CNc1nc(Nc2ccc(C(=O)N3CCOCC3)cc2OC)ncc1Cl,108
17,Cc1cnc(C(=O)O)c[n+]1[O-],117
18,CCOc1ccc(Cc2cc([C@@H]3O[C@H](CO)[C@@H](O)[C@H](O)[C@H]3O)ccc2Cl)cc1,130
19,COC(=O)N[C@H](C(=O)N[C@@H](Cc1ccccc1)[C@@H](O)CN(Cc1ccc(-c2ccccn2)cc1)NC(=O)[C@@H](NC(=O)OC)C(C)(C)C)C(C)(C)C,112
20,CCOCC(O)COc1ccc(NC(=O)CC[S+](C)C)cc1 (centres undefined),111
21,C=CC(=O)Nc1cc(NC(=O)c2ccc(C)c(NC(=O)c3ccno3)c2)cc(C(F)(F)F)c1,106

row,Structure (SMILES),viability
1,NC1CCC(Nc2nc(Nc3ccc(C(=O)N4CCCCC4)cc3)c3ncn(-c4cccc(F)c4)c3n2)CC1 (centres undefined),86
2,CC[C@@]1(O)C[C@H](O[C@H]2C[C@H](N(C)C)[C@H](O[C@H]3C[C@H](O)[C@H](O[C@H]4CCC(=O)[C@H](C)O4)[C@H](C)O3)[C@H](C)O2)c2c(cc3c(c2O)C(=O)c2c(O)cccc2C3=O)[C@H]1C(=O)OC,83.4
3,CCOC(=O)c1ccc(C#Cc2ccc3c(c2)C(C)(C)CCS3)nc1,118
4,Cc1ccc(-n2nc(C(C)(C)C)cc2NC(=O)Nc2ccc(OCCN3CCOCC3)c3ccccc23)cc1,56
5,N#Cc1ccc(Oc2ccc3c(c2)COB3O)cc1,124
6,COC1=CC=C(C=C1)C/2=C/OC3=CC(=CC=C3C2=O)O,95.7
7,C[C@]12CCC\3=C\4CCC(=O)\C=C4CC[C@H]3[C@@H]1CC[C@@]2(O)CC#N,122
8,NC1=NC(=O)N2CC12 (centres undefined),138
9,CCOc1ccc(Nc2nc(-c3c(C)nc4ccccn34)cs2)cc1,101
10,CCOc1cc(N)c(Cl)cc1C(=O)NCC1CN(Cc2ccc(F)cc2)CCO1 (centres undefined),85.7
11,COc1cc2c(cc1OC)C1CC(=O)C(CC(C)C)CN1CC2 (centres undefined),110
12,CN(C)CC[C@H](c1ccc(Cl)cc1)c1ccccn1,112
13,CC(C)(C#N)c1cc(Cn2cncn2)cc(C(C)(C)C#N)c1,116
14,Cc1ccc([S+](=O)([O-])N[C@@H](Cc2ccccc2)C(=O)CCl)cc1,90.3
15,CC(C)Nc1cc(C(F)(F)F)cc2nc(NC(=O)c3cccnc3)nn12,113
16,COCCCN1CCC(NC(=O)c2cc(Cl)c(N)c3c2OCC3)CC1,76.9
17,c1cc(CN2CCCNCCNCCCNCC2)ccc1CN1CCCNCCNCCCNCC1,144
18,O=C(Nc1cccc(C(F)(F)F)c1)Nc1cc([S+](=O)([O-])NC2CC2)ccc1-c1ccsc1,124
19,COc1ccc(-n2c(C)c([N+](=O)[O-])c3ccc(O)cc32)cc1,87
20,C=CC(=O)Nc1cc2c(Nc3ccc(F)c(Cl)c3)ncnc2cc1OCCCN1CCOCC1,81.6
21,O=C1N(c2ccccc2)c2ccccc2C1(Cc1ccncc1)Cc1ccncc1,108
